Data taken from article PMC4490784, “Compensatory induction of MYC expression by sustained CDK9 inhibition via a BRD4-dependent mechanism” (eLife, 2015).

Legend:
Test in all cases: KINOMEscan binding assay
RIPK1 = target: T1, RIPK1 (Homo sapiens, UniProt Q13546); conditions: read-out: % Retention on Solid Support
T1 construct: purchased DiscoveRx KINOMEscan
In short: (§1)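 Active site-directed competition binding measured kinase engagement within a panel of over 400 kinases. i-CDK9 was tested at two concentrations, 1 and 10 µM.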

MYLK4 = target: T2, MYLK4 (Homo sapiens, UniProt Q86YV6); conditions: read-out: % Retention on Solid Support
T2 construct: purchased DiscoveRx KINOMEscan
In short: as §1

MLK2 = target: T3, MLK2 (Homo sapiens, UniProt Q02779); conditions: read-out: % Retention on Solid Support
T3 construct: purchased DiscoveRx KINOMEscan
In short: as §1

[1] = target: T4, EGFR(L747-S752del, P753S) (Homo sapiens, UniProt P00533, DEL747-752/P753S)
T4 construct: purchased DiscoveRx KINOMEscan
In short: as §1

CHEK1 = target: T5, CHEK1 (Homo sapiens, UniProt O14757)
T5 construct: purchased DiscoveRx KINOMEscan
In short: as §1

MKNK2 = target: T6, MKNK2 (Homo sapiens, UniProt Q9HBH9); conditions: read-out: % Retention on Solid Support
T6 construct: purchased DiscoveRx KINOMEscan
In short: as §1

MAP4K5 = target: T7, MAP4K5 (Homo sapiens, UniProt Q9Y4K4); conditions: read-out: % Retention on Solid Support
T7 construct: purchased DiscoveRx KINOMEscan
In short: as §1

PFPK5(P.falciparum) = target: T8, PFPK5(P.falciparum) (Plasmodium falciparum, UniProt P61075); conditions: 1 µM i-CDK9; read-out: % Retention on Solid Support
T8 construct: purchased DiscoveRx KINOMEscan
In short: as §1

NEK11 = target: T9, NEK11 (Homo sapiens, UniProt Q8NG66); conditions: 1 µM i-CDK9; read-out: % Retention on Solid Support
T9 construct: purchased DiscoveRx KINOMEscan
In short: as §1

FGFR3(G697C) = target: T10, FGFR3(G697C) (Homo sapiens, UniProt P22607, G697C); conditions: read-out: % Retention on Solid Support
T10 construct: purchased DiscoveRx KINOMEscan
In short: as §1

PIP5K1A = target: T11, PIP5K1A (Homo sapiens, UniProt Q99755); conditions: read-out: % Retention on Solid Support
T11 construct: purchased DiscoveRx KINOMEscan
In short: as §1

YANK2 = target: T12, YANK2 (Homo sapiens, UniProt Q9NY57); conditions: read-out: % Retention on Solid Support
T12 construct: purchased DiscoveRx KINOMEscan
T12 sequence (Q9NY57 whole entry): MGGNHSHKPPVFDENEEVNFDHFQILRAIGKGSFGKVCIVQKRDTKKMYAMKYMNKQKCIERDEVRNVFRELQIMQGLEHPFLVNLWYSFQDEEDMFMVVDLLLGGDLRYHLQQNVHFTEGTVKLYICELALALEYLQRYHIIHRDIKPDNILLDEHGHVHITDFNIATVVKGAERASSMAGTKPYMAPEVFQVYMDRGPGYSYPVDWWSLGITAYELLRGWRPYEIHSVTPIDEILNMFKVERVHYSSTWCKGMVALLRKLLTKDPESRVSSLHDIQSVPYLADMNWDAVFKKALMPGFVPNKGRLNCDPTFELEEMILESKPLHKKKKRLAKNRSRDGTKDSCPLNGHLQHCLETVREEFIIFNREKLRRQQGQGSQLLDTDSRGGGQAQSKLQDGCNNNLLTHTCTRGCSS
In short: as §1

PFCDPK1(P.falciparum) = target: T13, PFCDPK1(P.falciparum) (Plasmodium falciparum, UniProt P62344); conditions: 1 µM i-CDK9; read-out: % Retention on Solid Support
T13 construct: purchased DiscoveRx KINOMEscan
In short: as §1

PRKG2 = target: T14, PRKG2 (Homo sapiens, UniProt Q13237); conditions: read-out: % Retention on Solid Support
T14 construct: purchased DiscoveRx KINOMEscan
In short: as §1

FER = target: T15, FER (Homo sapiens, UniProt P16591); conditions: read-out: % Retention on Solid Support
T15 construct: purchased DiscoveRx KINOMEscan
In short: as §1

PCTK3 = target: T16, PCTK3 (Homo sapiens, UniProt Q07002); conditions: read-out: % Retention on Solid Support
T16 construct: purchased DiscoveRx KINOMEscan
In short: as §1

INSRR = target: T17, INSRR (Homo sapiens, UniProt P14616); conditions: read-out: % Retention on Solid Support
T17 construct: purchased DiscoveRx KINOMEscan
T17 sequence (P14616 27-1297): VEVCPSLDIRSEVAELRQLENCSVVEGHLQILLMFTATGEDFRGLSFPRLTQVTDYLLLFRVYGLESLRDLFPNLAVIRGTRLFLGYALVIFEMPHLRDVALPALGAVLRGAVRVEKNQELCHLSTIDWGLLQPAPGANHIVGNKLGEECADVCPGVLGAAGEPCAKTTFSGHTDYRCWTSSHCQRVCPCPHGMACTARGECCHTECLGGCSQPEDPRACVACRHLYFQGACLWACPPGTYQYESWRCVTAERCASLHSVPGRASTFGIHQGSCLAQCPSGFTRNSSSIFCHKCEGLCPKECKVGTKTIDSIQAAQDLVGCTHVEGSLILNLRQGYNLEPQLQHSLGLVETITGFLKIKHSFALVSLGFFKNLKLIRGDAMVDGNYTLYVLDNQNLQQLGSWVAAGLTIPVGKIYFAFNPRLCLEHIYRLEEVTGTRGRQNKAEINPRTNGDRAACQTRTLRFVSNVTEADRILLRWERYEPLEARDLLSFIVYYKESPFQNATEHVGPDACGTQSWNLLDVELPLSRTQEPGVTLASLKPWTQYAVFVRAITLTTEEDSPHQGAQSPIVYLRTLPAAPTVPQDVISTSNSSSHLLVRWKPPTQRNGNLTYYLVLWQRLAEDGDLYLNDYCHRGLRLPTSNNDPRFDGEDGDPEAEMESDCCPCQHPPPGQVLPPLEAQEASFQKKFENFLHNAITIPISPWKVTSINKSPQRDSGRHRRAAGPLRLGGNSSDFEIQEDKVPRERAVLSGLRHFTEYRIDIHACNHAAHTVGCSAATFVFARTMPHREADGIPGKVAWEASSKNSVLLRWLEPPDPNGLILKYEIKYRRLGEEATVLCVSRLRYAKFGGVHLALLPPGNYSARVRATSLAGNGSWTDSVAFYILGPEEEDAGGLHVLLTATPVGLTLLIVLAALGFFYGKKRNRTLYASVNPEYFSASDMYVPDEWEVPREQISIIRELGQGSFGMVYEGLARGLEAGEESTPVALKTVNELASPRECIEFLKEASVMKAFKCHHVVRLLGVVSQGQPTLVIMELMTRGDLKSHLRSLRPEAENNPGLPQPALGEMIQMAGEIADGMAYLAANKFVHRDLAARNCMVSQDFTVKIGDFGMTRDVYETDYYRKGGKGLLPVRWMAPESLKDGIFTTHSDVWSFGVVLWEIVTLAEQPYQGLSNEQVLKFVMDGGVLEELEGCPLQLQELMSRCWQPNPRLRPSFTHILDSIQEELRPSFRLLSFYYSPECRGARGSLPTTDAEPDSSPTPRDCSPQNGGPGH
In short: as §1

GRK4 = target: T18, GRK4 (Homo sapiens, UniProt P32298); conditions: read-out: % Retention on Solid Support
T18 construct: purchased DiscoveRx KINOMEscan
T18 sequence (P32298 whole entry): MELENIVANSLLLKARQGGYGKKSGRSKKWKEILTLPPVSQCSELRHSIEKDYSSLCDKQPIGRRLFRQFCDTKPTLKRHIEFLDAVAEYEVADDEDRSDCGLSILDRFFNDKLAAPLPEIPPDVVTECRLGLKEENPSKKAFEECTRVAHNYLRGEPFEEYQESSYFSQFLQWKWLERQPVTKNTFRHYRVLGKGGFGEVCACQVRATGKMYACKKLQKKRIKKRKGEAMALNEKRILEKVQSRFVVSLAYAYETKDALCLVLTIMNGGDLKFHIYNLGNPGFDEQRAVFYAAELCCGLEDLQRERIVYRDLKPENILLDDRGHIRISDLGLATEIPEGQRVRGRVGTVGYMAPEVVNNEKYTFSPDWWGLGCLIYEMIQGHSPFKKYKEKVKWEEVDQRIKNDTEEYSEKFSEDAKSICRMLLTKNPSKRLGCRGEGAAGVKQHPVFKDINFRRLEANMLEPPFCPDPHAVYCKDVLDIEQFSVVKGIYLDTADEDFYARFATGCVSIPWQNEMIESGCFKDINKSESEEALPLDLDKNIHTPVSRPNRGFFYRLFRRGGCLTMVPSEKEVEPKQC
In short: as §1

HIPK4 = target: T19, HIPK4 (Homo sapiens, UniProt Q8NE63); conditions: read-out: % Retention on Solid Support
T19 construct: purchased DiscoveRx KINOMEscan
T19 sequence (Q8NE63 whole entry): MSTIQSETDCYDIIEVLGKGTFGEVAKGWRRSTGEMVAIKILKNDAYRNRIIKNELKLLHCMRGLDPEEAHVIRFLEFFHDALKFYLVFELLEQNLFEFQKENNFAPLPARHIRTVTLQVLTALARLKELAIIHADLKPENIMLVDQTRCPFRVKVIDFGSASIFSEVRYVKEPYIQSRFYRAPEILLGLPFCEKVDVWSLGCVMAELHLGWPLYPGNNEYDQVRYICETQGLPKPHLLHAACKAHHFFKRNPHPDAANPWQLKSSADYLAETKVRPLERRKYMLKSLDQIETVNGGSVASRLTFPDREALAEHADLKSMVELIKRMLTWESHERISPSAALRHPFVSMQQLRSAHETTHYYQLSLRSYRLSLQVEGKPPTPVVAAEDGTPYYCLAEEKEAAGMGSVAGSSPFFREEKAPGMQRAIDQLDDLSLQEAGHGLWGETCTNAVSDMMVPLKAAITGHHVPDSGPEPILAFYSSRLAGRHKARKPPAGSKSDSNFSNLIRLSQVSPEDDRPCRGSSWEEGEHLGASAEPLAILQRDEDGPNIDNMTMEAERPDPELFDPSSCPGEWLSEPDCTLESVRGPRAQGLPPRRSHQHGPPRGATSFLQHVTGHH
In short: as §1

[2] = target: T20, RSK3(Kin.Dom.1-N-terminal) (Homo sapiens, UniProt Q15349); conditions: read-out: % Retention on Solid Support
T20 construct: RSK3(Kin.Dom.1-N-terminal); purchased DiscoveRx KINOMEscan
In short: as §1

KIT(V559D,V654A) = target: T21, KIT(V559D,V654A) (Homo sapiens, UniProt P10721, V559D/V654A); conditions: read-out: % Retention on Solid Support
T21 construct: purchased DiscoveRx KINOMEscan
T21 sequence (P10721 26-976 V559D/V654A): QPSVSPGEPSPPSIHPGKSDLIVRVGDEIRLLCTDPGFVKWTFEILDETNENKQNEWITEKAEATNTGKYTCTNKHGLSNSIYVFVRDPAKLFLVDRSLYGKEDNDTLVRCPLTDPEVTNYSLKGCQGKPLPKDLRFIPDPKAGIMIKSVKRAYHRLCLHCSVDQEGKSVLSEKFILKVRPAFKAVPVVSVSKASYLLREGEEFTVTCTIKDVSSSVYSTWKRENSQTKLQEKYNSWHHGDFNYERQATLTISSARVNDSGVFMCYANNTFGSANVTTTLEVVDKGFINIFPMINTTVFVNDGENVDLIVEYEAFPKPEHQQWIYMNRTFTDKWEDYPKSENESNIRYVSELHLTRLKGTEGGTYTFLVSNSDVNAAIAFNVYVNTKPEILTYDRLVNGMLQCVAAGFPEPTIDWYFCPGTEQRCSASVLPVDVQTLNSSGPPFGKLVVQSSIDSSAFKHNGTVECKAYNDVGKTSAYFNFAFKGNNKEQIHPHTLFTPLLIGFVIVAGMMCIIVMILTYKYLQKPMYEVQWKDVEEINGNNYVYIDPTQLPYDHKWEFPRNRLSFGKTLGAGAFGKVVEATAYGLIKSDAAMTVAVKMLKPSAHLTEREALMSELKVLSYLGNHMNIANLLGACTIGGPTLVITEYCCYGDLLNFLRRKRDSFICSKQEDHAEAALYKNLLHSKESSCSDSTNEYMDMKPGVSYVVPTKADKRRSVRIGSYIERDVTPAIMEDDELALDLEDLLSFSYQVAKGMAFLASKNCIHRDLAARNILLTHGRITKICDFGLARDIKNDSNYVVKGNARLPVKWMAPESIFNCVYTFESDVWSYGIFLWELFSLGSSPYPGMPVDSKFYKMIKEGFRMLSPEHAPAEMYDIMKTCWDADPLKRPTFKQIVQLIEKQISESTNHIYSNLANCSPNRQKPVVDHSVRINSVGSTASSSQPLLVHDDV
In short: as §1

PDGFRA = target: T22, PDGFRA (Homo sapiens, UniProt P16234); conditions: read-out: % Retention on Solid Support
T22 construct: purchased DiscoveRx KINOMEscan
In short: as §1

PRKR = target: T23, PRKR (Homo sapiens, UniProt P19525)
T23 construct: purchased DiscoveRx KINOMEscan
T23 sequence (P19525 whole entry): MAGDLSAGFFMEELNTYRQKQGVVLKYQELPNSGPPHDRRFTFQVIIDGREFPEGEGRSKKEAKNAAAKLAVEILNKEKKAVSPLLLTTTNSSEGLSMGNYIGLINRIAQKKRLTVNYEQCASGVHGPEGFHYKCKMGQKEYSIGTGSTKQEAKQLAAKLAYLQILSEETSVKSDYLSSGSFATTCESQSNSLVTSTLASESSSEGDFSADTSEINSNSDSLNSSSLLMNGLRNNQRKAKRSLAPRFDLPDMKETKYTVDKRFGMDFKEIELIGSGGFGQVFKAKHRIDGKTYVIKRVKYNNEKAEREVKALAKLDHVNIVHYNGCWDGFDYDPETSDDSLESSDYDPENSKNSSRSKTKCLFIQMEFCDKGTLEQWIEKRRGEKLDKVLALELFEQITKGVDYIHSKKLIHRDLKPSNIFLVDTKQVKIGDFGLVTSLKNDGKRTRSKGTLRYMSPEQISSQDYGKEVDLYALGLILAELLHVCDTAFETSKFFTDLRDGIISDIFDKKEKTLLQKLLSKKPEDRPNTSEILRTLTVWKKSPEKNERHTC
In short: as §1

MEK3 = target: T24, MEK3 (Homo sapiens, UniProt P46734); conditions: read-out: % Retention on Solid Support
T24 construct: purchased DiscoveRx KINOMEscan
In short: as §1

PLK3 = target: T25, PLK3 (Homo sapiens, UniProt Q9H4B4); conditions: read-out: % Retention on Solid Support
T25 construct: purchased DiscoveRx KINOMEscan
T25 sequence (Q9H4B4 whole entry): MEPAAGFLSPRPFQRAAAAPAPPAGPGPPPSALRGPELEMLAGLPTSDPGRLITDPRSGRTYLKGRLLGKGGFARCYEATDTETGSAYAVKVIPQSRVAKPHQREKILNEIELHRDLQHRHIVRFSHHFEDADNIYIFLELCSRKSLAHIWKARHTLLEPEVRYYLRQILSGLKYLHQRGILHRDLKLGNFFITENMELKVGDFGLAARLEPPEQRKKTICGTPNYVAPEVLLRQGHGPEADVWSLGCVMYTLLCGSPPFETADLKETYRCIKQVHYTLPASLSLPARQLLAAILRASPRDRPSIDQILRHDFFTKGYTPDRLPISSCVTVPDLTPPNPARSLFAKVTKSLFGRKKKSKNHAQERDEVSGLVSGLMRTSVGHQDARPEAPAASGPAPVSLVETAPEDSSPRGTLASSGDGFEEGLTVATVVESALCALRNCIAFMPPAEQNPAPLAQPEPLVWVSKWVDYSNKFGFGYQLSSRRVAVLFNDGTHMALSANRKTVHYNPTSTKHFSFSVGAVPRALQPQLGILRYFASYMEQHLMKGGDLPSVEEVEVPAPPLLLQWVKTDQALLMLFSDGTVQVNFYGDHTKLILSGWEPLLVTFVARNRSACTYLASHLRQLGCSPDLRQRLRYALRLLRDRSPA
In short: as §1

DAPK1 = target: T26, DAPK1 (Homo sapiens, UniProt P53355); conditions: read-out: % Retention on Solid Support
T26 construct: purchased DiscoveRx KINOMEscan
In short: as §1

CAMKK2 = target: T27, CAMKK2 (Homo sapiens, UniProt Q96RR4); conditions: read-out: % Retention on Solid Support
T27 construct: purchased DiscoveRx KINOMEscan
In short: as §1

EPHB2 = target: T28, EPHB2 (Homo sapiens, UniProt P29323)
T28 construct: purchased DiscoveRx KINOMEscan
In short: as §1

NLK = target: T29, NLK (Homo sapiens, UniProt Q9UBE8); conditions: read-out: % Retention on Solid Support
T29 construct: purchased DiscoveRx KINOMEscan
In short: as §1

With `N[C@H]1CC[C@H](Nc2cc(-c3cccc(NCc4cccc(F)c4)n3)c(Cl)cn2)CC1` [i-CDK9, N2′-(trans-4-aminocyclohexyl)-5′-chloro-N6-(3-fluorobenzyl)-2,4′-bipyridine-2′,6-diamine] the remaining binding at 1 µM (RIPK1; 1 µM i-CDK9) was 100%, the remaining binding at 10 µM (RIPK1; 10 µM i-CDK9) was 100% and the remaining binding at 1 µM (MYLK4; 1 µM i-CDK9) was 94%. It also gave a remaining binding at 10 µM (MYLK4; 10 µM i-CDK9) of 73%, a remaining binding at 1 µM (MLK2; 1 µM i-CDK9) of 100% and a remaining binding at 10 µM (MLK2; 10 µM i-CDK9) of 100%. For the same molecule, the “% Retention on Solid Support” value ([1]; 1 µM i-CDK9) was 46%, the “% Retention on Solid Support” value ([1]; 10 µM i-CDK9) was 65% and the “% Retention on Solid Support” value (CHEK1; 1 µM i-CDK9) was 100%. The “% Retention on Solid Support” value (CHEK1; 10 µM i-CDK9) was 82%, the remaining binding at 1 µM (MKNK2; 1 µM i-CDK9) was 100% and the remaining binding at 10 µM (MKNK2; 10 µM i-CDK9) was 99%. It also gave a remaining binding at 1 µM (MAP4K5; 1 µM i-CDK9) of 94%, a remaining binding at 10 µM (MAP4K5; 10 µM i-CDK9) of 85% and a remaining binding at 1 µM (PFPK5(P.falciparum)) of 100%. For the same molecule, the remaining binding at 1 µM (NEK11) was 100%, the remaining binding at 1 µM (FGFR3(G697C); 1 µM i-CDK9) was 96% and the remaining binding at 10 µM (FGFR3(G697C); 10 µM i-CDK9) was 100%. The remaining binding at 1 µM (PIP5K1A; 1 µM i-CDK9) was 83%, the remaining binding at 10 µM (PIP5K1A; 10 µM i-CDK9) was 99% and the remaining binding at 1 µM (YANK2; 1 µM i-CDK9) was 90%. The remaining binding at 10 µM (YANK2; 10 µM i-CDK9) was 100%, the remaining binding at 1 µM (PFCDPK1(P.falciparum)) was 100% and the remaining binding at 1 µM (PRKG2; 1 µM i-CDK9) was 100%. It also gave a remaining binding at 10 µM (PRKG2; 10 µM i-CDK9) of 100%, a remaining binding at 1 µM (FER; 1 µM i-CDK9) of 56% and a remaining binding at 10 µM (FER; 10 µM i-CDK9) of 100%. The remaining binding at 1 µM (PCTK3; 1 µM i-CDK9) was 33%, the remaining binding at 10 µM (PCTK3; 10 µM i-CDK9) was 0.15% and the remaining binding at 1 µM (INSRR; 1 µM i-CDK9) was 92%. For the same molecule, the remaining binding at 10 µM (INSRR; 10 µM i-CDK9) was 97%, the remaining binding at 1 µM (GRK4; 1 µM i-CDK9) was 100% and the remaining binding at 10 µM (GRK4; 10 µM i-CDK9) was 100%. It also gave a remaining binding at 1 µM (HIPK4; 1 µM i-CDK9) of 40%, a remaining binding at 10 µM (HIPK4; 10 µM i-CDK9) of 3.2% and a remaining binding at 1 µM ([2]; 1 µM i-CDK9) of 100%. It also gave a remaining binding at 10 µM ([2]; 10 µM i-CDK9) of 78%, a remaining binding at 1 µM (KIT(V559D,V654A); 1 µM i-CDK9) of 100% and a remaining binding at 10 µM (KIT(V559D,V654A); 10 µM i-CDK9) of 75%. For the same molecule, the remaining binding at 1 µM (PDGFRA; 1 µM i-CDK9) was 59%, the remaining binding at 10 µM (PDGFRA; 10 µM i-CDK9) was 88% and the “% Retention on Solid Support” value (PRKR; 1 µM i-CDK9) was 84%. The “% Retention on Solid Support” value (PRKR; 10 µM i-CDK9) was 100%, the remaining binding at 1 µM (MEK3; 1 µM i-CDK9) was 99% and the remaining binding at 10 µM (MEK3; 10 µM i-CDK9) was 85%. It also gave a remaining binding at 1 µM (PLK3; 1 µM i-CDK9) of 96%, a remaining binding at 10 µM (PLK3; 10 µM i-CDK9) of 89% and a remaining binding at 1 µM (DAPK1; 1 µM i-CDK9) of 64%. It also gave a remaining binding at 10 µM (DAPK1; 10 µM i-CDK9) of 100%, a remaining binding at 1 µM (CAMKK2; 1 µM i-CDK9) of 73% and a remaining binding at 10 µM (CAMKK2; 10 µM i-CDK9) of 100%. The “% Retention on Solid Support” value (EPHB2; 1 µM i-CDK9) was 100%, the “% Retention on Solid Support” value (EPHB2; 10 µM i-CDK9) was 66% and the remaining binding at 1 µM (NLK; 1 µM i-CDK9) was 100%. For the same molecule, the remaining binding at 10 µM (NLK; 10 µM i-CDK9) was 91%.
